{"source": "patent US20230190760A1", "about": "“ADVANTAGEOUS THERAPIES FOR DISORDERS MEDIATED BY IKAROS OR AIOLOS” (C4 Therapeutics, Inc., priority 2020, published 2023)", "key": {"[1]": {"test_system": "germinal center B-cell like DLBCL lines", "assay": "Anti-cancer activity in GCB-DLBCL cell lines", "assay_type": "cell-based", "details": "six of eleven responsive, read-out: mean IC50 amongst the responsive lines"}, "[2]": {"test_system": "hematological cancer cell lines", "assay": "Anti-proliferative activity in hematological cancer cell lines (whole panel)", "assay_type": "cell-based", "details": "in multiple cell lines, 96 hours"}, "[3]": {"test_system": "HepG2 liver cancer cells", "assay": "Viability assay in HepG2 liver cancer cells", "assay_type": "cell-based", "details": "concentrations up to 3.3 μM"}, "[4]": {"target": "T1, IKZF1 (Rattus norvegicus, UniProt A0A0G2JVD9)", "T1 construct": "from tissue; host or cells: peripheral blood cells (PBMC) of rats, ex vivo", "T1 sequence (A0A0G2JVD9 1-562)": "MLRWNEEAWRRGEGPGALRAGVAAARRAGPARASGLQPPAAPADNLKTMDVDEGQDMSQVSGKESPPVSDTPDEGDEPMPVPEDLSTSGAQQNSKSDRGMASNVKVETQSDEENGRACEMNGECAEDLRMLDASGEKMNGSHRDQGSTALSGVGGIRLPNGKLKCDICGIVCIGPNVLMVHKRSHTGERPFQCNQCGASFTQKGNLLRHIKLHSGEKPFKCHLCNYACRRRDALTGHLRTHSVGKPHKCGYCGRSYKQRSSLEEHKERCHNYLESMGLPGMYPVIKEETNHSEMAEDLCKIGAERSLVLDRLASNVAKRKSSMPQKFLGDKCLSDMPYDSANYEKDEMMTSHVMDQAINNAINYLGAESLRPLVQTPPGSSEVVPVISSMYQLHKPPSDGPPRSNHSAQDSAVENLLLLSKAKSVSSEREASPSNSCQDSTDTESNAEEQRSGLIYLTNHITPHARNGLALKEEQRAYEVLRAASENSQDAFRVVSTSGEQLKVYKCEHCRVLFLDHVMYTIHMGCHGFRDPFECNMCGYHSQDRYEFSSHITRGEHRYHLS", "T1 sequence (Q56AP7 whole entry partner)": "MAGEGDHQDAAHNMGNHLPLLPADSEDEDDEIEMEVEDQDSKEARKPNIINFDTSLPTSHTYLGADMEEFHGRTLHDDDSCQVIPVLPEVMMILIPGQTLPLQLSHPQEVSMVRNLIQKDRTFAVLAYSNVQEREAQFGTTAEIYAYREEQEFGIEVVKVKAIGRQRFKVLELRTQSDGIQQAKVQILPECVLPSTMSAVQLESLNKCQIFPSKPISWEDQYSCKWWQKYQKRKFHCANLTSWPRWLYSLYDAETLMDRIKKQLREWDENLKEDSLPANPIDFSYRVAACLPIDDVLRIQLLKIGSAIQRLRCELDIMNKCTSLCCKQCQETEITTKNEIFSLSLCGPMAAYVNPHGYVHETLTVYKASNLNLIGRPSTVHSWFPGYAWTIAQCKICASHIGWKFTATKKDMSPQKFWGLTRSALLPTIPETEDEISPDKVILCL", "assay": "Ex vivo IKZF1 degradation in PBMC, rat", "assay_type": "cell-based", "details": "rat cells", "method": "IKZF1/3 are not degraded in mouse cells treated with thalidomide or its IMiD® analogs because of a single amino acid difference in mouse cereblon compared to human cereblon that causes steric hindrance and prevents recruitment of IKZF1/3. Ex vivo studies were performed in peripheral blood cells (PBMC) of mice, rats, dogs, and monkeys to identify relevant species for IND enabling-toxicity studies based on the degree of IKZF1 degradation by Compound 1. IKZF1 was not degraded in mouse or rat cells by Compound 1, thus, while rat could not be considered a pharmacologically relevant species for human risk assessment, it was chosen as the rodent species for toxicological studies because it is widely used in toxicity testing and a substantial historical toxicology database is available. […] Therefore, cynomolgus monkey was chosen for non-rodent toxicological studies."}, "[5]": {"test_system": "RPMI-8226 tumors", "assay": "RPMI-8226 multiple myeloma xenograft, CB17 SCID mice (Example 13)", "assay_type": "in vivo", "method": "Compound 1 efficacy in two multiple myeloma cell lines (NC-H929) and (RPMI-8226) was evaluated at four different doses: 3 μg/kg, 10 μg/kg, 30 μg/kg, and 100 μg/kg. Compound 1 was administered QD (every day) orally (PO). […]\nStatistical analysis was performed using two-way analysis of variance (ANOVA). Data are expressed as MTV±SEM."}, "[6]": {"test_system": "RPMI-8226 tumors", "assay": "RPMI-8226 xenograft, crossover from pomalidomide to Compound 1", "assay_type": "in vivo, mice", "details": "100 μg/kg/day", "method": "Vehicle treated animals were treated for 28 days until tumors reached a MTV of 2211 mm^3. […] Data are expressed as MTV±SEM.\nTumor growth was monitored throughout the study. […] Measurements were twice weekly. The health of the mice was monitored, and noteworthy clinical observations were recorded. Acceptable toxicity was defined as a group's mean BW loss of less than 20% during the study and not more than one treatment related death among ten treated animals, or 10%.\nAnimals were weighed on a twice weekly schedule."}, "[7]": {"assay": "Plasma PK and interconversion in monkeys", "assay_type": "in vivo", "details": "monkey, Compound 1 60 μg/kg or 100 μg/kg PO", "method": "Compound 1 was administered to a rat at a concentration of 30 mg/kg PO and monkeys at a concentration of either 60 μg/kg or 100 μg/kg PO. At the indicated timepoints shown in FIG. 25A and FIG. 25B, plasma samples were collected and the Cmax, half-life, and AUC0-inf were determined for both Compound 1 and a metabolite of Compound 1, Compound 14. The percent of Compound 14 was also determined (Table 13). PK values dose normalized to 1 mg/kg. FIG. 25A is a graph measuring the concentration of Compound 1 or Compound 14 over the course of 24 hours in monkeys administered 100 μg/kg or 60 μg/kg of Compound 1. FIG. 25B is a graph measuring the concentration of Compound 1 or Compound 14 over the course of 24 hours in a rat administered 30 mg/kg of Compound 1."}, "[8]": {"test_system": "SU-DHL-1", "assay": "Anti-proliferative activity, 96 hours", "details": "Homo sapiens, SU-DHL-1, 96 h"}, "[9]": {"test_system": "KIJK", "assay": "Anti-proliferative activity, 96 hours"}, "[10]": {"test_system": "Rec-1", "assay": "Anti-proliferative activity, 96 hours", "details": "Homo sapiens, Rec1, 96 h"}, "[11]": {"test_system": "H929", "assay": "Anti-proliferative activity, 96 hours", "details": "Homo sapiens, NCI-H929, 96 h"}, "[12]": {"test_system": "RPMI 8226", "assay": "Anti-proliferative activity, 96 hours", "details": "Homo sapiens, RPMI-8226, 96 h"}, "[13]": {"test_system": "IMiD-resistant NCIH929 cells", "assay": "Growth of IMiD-resistant NCIH929 cells (CellTiter-Glo)", "protocol": "Briefly, test compound was added to 384-well plates at a top concentration of 10 μM with 14 points, half log titration in duplicates. NCIH929 cells were seeded into the 384-well plates in RPMI medium containing 10% FBS and 0.05 mM 2-mercaptoethanol at a cell density of 750 cells per well. Cells treated in the absence of the test compound were the negative control and cells treated in the absence of CellTiter-Glo® 2.0 were the positive control. Cells treated with the test compounds were incubated at 37° C. with 5% CO2 for 96 hr. CellTiter-Glo reagent was then added to the cells and luminescence was acquired on EnVision™ Multilabel Reader (PerkinElmer, Santa Clara, Calif., USA). % Viability was determined by normalizing the signal with positive and DMSO treated negative controls on the same microtiter plate."}, "[14]": {"test_system": "Caspase 3/7 activity in TMD8 cells", "assay": "Apoptosis induction, Caspase 3/7 activity in TMD8 cells", "protocol": "30 μL TMD8 cells were seeded into the 384-well plates in RPMI medium containing 10% FBS at a cell density of 2000 cells per well. Cells treated in the absence of the test compound were the negative control. Following compound treatment, cells were incubated at 37° C. with 5% CO2 for 48 hr. 30 μL reconstituted Caspase 3/7 Assay detection reagent was added to each well and luminescence was acquired on EnVision™ Multilabel Reader (PerkinElmer, Santa Clara, Calif., USA)."}}, "note": "pEC50, pIC50: −log10 of the molar value. Entries after “also recorded” stand apart in the source; their conditions may differ.", "data": [{"smiles": "O=C1CC[C@H](N2C(=O)c3cccc4c(Cc5ccc(CN6CCOCC6)cc5)ccc2c34)C(=O)N1", "note": "(single isomer, unassigned) [Compound 1]", "values": [{"measurement": "pIC50", "setting": "[1]", "value": 7.92}, {"measurement": "more active than pomalidomide", "setting": "[2]", "value": "more than 5,000 fold"}, {"measurement": "effect on viability", "setting": "[3]", "value": "no significant effect"}, {"measurement": "IKZF1 degradation", "setting": "[4]", "value": "not degraded"}, {"measurement": "Statistical Significance Compared to Vehicle", "setting": "[5]; 30 μg/kg PO QD", "value": 0.01}, {"measurement": "Statistical Significance Compared to Vehicle", "setting": "[5]; 100 μg/kg PO QD", "value": 0.009}, {"measurement": "tumor volume after crossover from pomalidomide", "setting": "[6]", "value": "rapid tumor regression; also recorded: began to decrease"}, {"measurement": "AUC(0-inf)", "setting": "[7]; dose normalized to 1 mg/kg", "value": 1280, "unit": "ng·h/mL"}, {"measurement": "Cmax", "setting": "[7]; dose normalized to 1 mg/kg", "value": 83, "unit": "ng/mL"}, {"measurement": "half-life", "setting": "[7]; read-out: T ½ (converted)", "value": 9, "unit": "h"}, {"measurement": "pIC50", "setting": "[8]", "value": 9.38}, {"measurement": "pIC50", "setting": "[9]", "value": 9.23}, {"measurement": "pIC50", "setting": "[10]", "value": 9.45}, {"measurement": "pIC50", "setting": "[11]", "value": 10.14}, {"measurement": "pIC50", "setting": "[12]", "value": 9.16}, {"measurement": "maximal inhibition", "setting": "[13]; 96 hours", "value": 70, "unit": "%"}, {"measurement": "pIC50", "setting": "[13]; Homo sapiens, NCI-H929, 96 h", "value": 8.64}, {"measurement": "Maximum caspase 3/7 activity", "setting": "[14]; 48 hr", "value": "> 8", "unit": "fold"}, {"measurement": "activity level of caspase-3 and caspase-7 increased", "setting": "[14]; FIG. 51", "value": "more than 800%"}, {"measurement": "pEC50", "setting": "[14]; Homo sapiens, TMD8, 48 h, read-out: EC50, caspase 3/7 activity", "value": 8.57}]}]}
